pKa in water data for five molecules are collected here from US6291694A, “Process and intermediates useful to produce vitamin D analogs” (Hoffman-La Roche Inc., priority 2000, dated 2001).

SMILES strings stand for the structures.

This series in a line: pKa of alcohol additive in water. Type of series: physicochemical.

`OC(C(F)(F)F)C(F)(F)F` [formula 15b]: the pKa in water is given as 9.13. Regarding `OC(C(F)(F)F)(C(F)(F)F)C(F)(F)F` [formula 15d, perfluoro-t-butanol], the pKa in water came out at 5.18. In turn, `CC(O)(C(F)(F)F)C(F)(F)F` [formula 15a] gave a pKa in water of 9.51.

As to `OC(c1ccccc1)(C(F)(F)F)C(F)(F)F` [formula 15c, 1,1,1,3,3,3-hexafluoro-2-phenyl-2-propanol], the pKa in water is listed as 8.52. `OC(c1cccc(C(O)(C(F)(F)F)C(F)(F)F)c1)(C(F)(F)F)C(F)(F)F` [Formula 16, 1,3-bis(1,1,1,3,3,3, -hexafluoro-2-hydroxypropyl)benzene]: the pKa in water is reported as 8.48.
